# Experimental data published in ChEMBL document CHEMBL3621169, “Synthesis of tetrazole compounds as a novel type of potential antimicrobial agents and their synergistic effects with clinical drugs and interactions with calf thymus DNA” (Medchemcomm, 2015).
# Columns and labels:
# [1] = tested on: Aspergillus flavus; test: Antifungal activity against Aspergillus flavus after 24 hrs by micro broth dilution method; type: functional
# [2] = tested on: Candida albicans; test: Antifungal activity against Candida albicans ATCC 90029 after 24 hrs by micro broth dilution method; type: functional; conditions: ATCC 90029, 24 h
# [3] = tested on: Cyberlindnera jadinii; test: Antifungal activity against Candida utilis ATCC 9950 after 24 hrs by micro broth dilution method; type: functional; conditions: Williopsis jadinii, ATCC 9950, 24 h
# [4] = tested on: Candida; test: Antifungal activity against Candida mycoderma after 24 hrs by micro broth dilution method; type: functional
# [5] = tested on: Bacillus sp.; test: Antibacterial activity against Bacillus proteus ATCC 13315 after 24 hrs by micro broth dilution method; type: functional; conditions: Bacillus sp. (in: firmicutes), ATCC 13315, 24 h
# [6] = tested on: Shigella dysenteriae; test: Antibacterial activity against Shigella dysenteriae ATCC 51252 after 24 hrs by micro broth dilution method; type: functional; conditions: ATCC 51252, 24 h
# [7] = tested on: Pseudomonas aeruginosa; test: Antibacterial activity against Pseudomonas aeruginosa ATCC 27853 after 24 hrs by micro broth dilution method; type: functional; conditions: ATCC 27853, 24 h
# [8] = tested on: Bacillus spizizenii; test: Antibacterial activity against Bacillus subtilis ATCC 6633 after 24 hrs by micro broth dilution method; type: functional; conditions: ATCC 6633, 24 h
# [9] = tested on: Staphylococcus aureus; test: Antibacterial activity against Staphylococcus aureus ATCC 25923 after 24 hrs by micro broth dilution method; type: functional; conditions: ATCC 25923, 24 h
# [10] = tested on: Staphylococcus aureus; test: Antibacterial activity against methicillin-resistant Staphylococcus aureus N315 after 24 hrs by micro broth dilution method; type: functional; conditions: N315, 24 h
# [11] = tested on: Micrococcus luteus; test: Antibacterial activity against Micrococcus luteus ATCC 4698 after 24 hrs by micro broth dilution method; type: functional; conditions: ATCC 4698, 24 h
# [12] = tested on: Escherichia coli; test: Antibacterial activity against Escherichia coli DH52 after 24 hrs by micro broth dilution method; type: functional; conditions: DH52, 24 h
# [13] = Ionization constant, pKa of the compound by UV spectroscopy; type: physicochemical
SMILES,MIC [1] [µg/mL],MIC [2] [µg/mL],MIC [3] [µg/mL],MIC [4] [µg/mL],MIC [5] [µg/mL],MIC [6] [µg/mL],MIC [7] [µg/mL],MIC [8] [µg/mL],MIC [9] [µg/mL],MIC [10] [µg/mL],MIC [11] [µg/mL],MIC [12] [µg/mL],pKa [13]
OC(Cn1cncn1)(Cn1cncn1)c1ccc(F)cc1F [FLUCONAZOLE],64,0.5,1,2,–,–,–,–,–,–,–,–,–
N#CCN(Cc1ccc(Cl)cc1Cl)c1ccccc1,256,128,128,64,256,256,256,128,256,256,256,128,–
COc1ccc(N(CC#N)Cc2ccc(F)cc2F)cc1,128,128,128,256,256,256,128,128,256,256,128,256,–
CCCCCCCCCCCCN(CC#N)c1ccccc1,128,256,256,256,512,512,512,256,256,512,128,256,–
Cc1ccc(N(CC#N)Cc2ccc(Cl)cc2Cl)cc1,128,64,64,512,512,256,256,512,128,128,512,256,–
CCCCCCN(CC#N)c1ccccc1,128,256,256,256,256,512,512,256,256,512,256,128,–
COc1ccc(N(CC#N)Cc2ccc(Cl)cc2Cl)cc1,128,64,128,64,128,128,256,256,128,128,256,256,–
N#CCN(Cc1cccc(F)c1)c1ccccc1,256,64,128,128,128,128,256,128,64,128,256,256,–
N#CCN(Cc1ccc(F)cc1)c1ccccc1,128,64,128,128,256,128,256,128,256,128,512,128,–
CCCCCCCCCCCCN(Cc1nnn[nH]1)c1ccccc1,32,128,64,64,256,256,256,64,128,128,128,128,4.92
CCCCCCCCN(CC#N)c1ccccc1,256,256,256,64,256,512,512,256,256,256,256,128,–
N#CCN(Cc1ccccc1F)c1ccccc1,128,128,128,128,512,512,128,256,128,128,256,128,–
N#CCN(Cc1ccccc1Cl)c1ccccc1,128,128,64,64,128,128,128,256,128,128,256,256,–
